Data taken from US10844051B2, “Substituted oxazoles for the treatment of cancer” (THE ROYAL INSTITUTION FOR THE ADCANCEMENT OF …, priority 2015, dated 2020).
Entries after “also recorded” stand apart in the source; their conditions may differ.

What was measured:
wild-type IRF3 = target: T1, wild-type IRF3 (Homo sapiens, UniProt Q14653); assay: ISRE-luc reporter assay in PC3 cells, wild-type IRF3; format: cell-based; details: 5 μM
T1 construct: host or cells: PC3

human GATA2 = target: T2, human GATA2 (Homo sapiens, UniProt P23769); assay: GATA2-dependent reporter assay in IHH cells; format: cell-based; details: GATA-Luc reporter, 48 h
T2 construct: expressed in transfected cells; host or cells: IHH
T2 sequence (P23769 1-480): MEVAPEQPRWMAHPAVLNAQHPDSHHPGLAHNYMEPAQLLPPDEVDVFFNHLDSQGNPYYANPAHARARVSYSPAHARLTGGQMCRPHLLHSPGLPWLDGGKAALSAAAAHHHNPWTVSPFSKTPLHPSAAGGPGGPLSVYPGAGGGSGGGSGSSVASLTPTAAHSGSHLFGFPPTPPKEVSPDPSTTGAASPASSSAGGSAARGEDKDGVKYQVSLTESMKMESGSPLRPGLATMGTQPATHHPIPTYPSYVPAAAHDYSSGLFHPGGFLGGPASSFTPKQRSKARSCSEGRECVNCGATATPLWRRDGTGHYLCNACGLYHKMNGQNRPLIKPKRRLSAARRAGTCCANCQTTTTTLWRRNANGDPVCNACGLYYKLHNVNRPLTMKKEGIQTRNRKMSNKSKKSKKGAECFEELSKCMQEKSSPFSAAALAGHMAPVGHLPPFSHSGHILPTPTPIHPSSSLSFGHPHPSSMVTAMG
Description: K7174 is a known GATA2 inhibitor. The IHH cells were transiently transfected with empty vector (for the NT) or human GATA2-expressing plasmid as well as pRL-TK (internal control) and GATA-Luc reporter plasmids. Cells were exposed to DMSO vehicle or compounds for 48 h. Experiments were in triplicate.

[1] = target: T3, recombinant protein of human GATA2 (Homo sapiens, UniProt P23769); assay: SPR analysis on amine-coupled GATA2; format: binding
T3 sequence (P23769 1-480): T2 sequence (P23769 1-480)
Text: In embodiments of the invention, the androgen-bound AR is regressing GATA2 expression and inhibition of AR via castration or use of antiandrogen releases such expression. […] Overexpression of GATA2 confers resistance to antiandrogen bicalutamide (Bic) (FIG. 2.9). Compound 673 is effective against the LNCaP stably transfected with GATA2-expressing plasmid (referred to as LNCaP-GATA2 cells) (FIG. 2.8).

human STING (hSTING) = target: T4, human STING (hSTING) (Homo sapiens, UniProt Q86WV6); assay: hSTING ISRE-luc reporter assay in 293T cells; format: cell-based; details: 24 hours
T4 construct: expressed in transfected cells; host or cells: 293T
T4 sequence (Q86WV6 whole entry H232R): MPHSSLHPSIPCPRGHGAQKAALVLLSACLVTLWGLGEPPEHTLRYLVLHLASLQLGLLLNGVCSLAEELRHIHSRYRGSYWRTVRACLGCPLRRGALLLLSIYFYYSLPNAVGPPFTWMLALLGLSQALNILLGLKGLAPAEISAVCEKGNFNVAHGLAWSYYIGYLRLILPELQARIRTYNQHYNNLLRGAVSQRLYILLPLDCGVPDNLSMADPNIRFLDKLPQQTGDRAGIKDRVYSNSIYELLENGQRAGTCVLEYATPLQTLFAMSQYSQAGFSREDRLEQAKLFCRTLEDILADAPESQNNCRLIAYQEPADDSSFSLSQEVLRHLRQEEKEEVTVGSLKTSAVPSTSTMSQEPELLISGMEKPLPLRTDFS
Description: ISRE-luc (reporter), pRL-TK (internal control) and hSTING-expressing plasmids were transiently transfected into 293T cells. Cells were exposed to DMSO vehicle control or compounds for 24 hours. Experiments were done in triplicate.

[2] = test system: androgen receptor (AR) signaling in C4-2B prostate cancer cells; assay: Western blot, AR signaling in C4-2B cells; format: cell-based
[3] = test system: GATA2 expression in C4-2B cells; assay: Western blot, GATA2 expression in C4-2B cells; format: cell-based
[4] = test system: fusion protein IRF3DBD-GATA2NTD; assay: ISRE-luc reporter assay in PC3 cells, IRF3DBD-GATA2NTD; format: cell-based; details: 5 μM
[5] = test system: A549 KRAS-mutant NSCLC cells; assay: MTT assay, A549; format: cell-based; details: 72 hours
Description: (§1) FIG. 2.7 Compound 673 is cytotoxic in KRAS-mutant NSCLC cells (A549 and H23), but is not toxic the KRAS wild-type NSCLC cells (H322). Cells were exposed to vehicle or compounds (μM) for 72 hours. Viable cells were evaluated by MTT assays.

[6] = test system: GATA family members (GATA1, GATA2, GATA3, GATA4); assay: GATA1-, GATA2-, GATA3- and GATA4-dependent reporter assays in IHH cells; format: cell-based; details: CSS medium, 48 hours
Description: In contrast, K7174 is not selective. GATA1-, GATA2-, GATA3- and GATA4-dependent reporter assays were done in IHH cells which were exposed to DMSO vehicle, compound 673 or K7174 (μM) in CSS medium for 48 hours.

human GATA3 = target: T5, human GATA3 (Homo sapiens, UniProt P23771); assay: GATA3-dependent reporter assay in IHH cells; format: cell-based; details: 48 hours
T5 construct: expressed in transfected cells; host or cells: IHH
T5 sequence (P23771 whole entry): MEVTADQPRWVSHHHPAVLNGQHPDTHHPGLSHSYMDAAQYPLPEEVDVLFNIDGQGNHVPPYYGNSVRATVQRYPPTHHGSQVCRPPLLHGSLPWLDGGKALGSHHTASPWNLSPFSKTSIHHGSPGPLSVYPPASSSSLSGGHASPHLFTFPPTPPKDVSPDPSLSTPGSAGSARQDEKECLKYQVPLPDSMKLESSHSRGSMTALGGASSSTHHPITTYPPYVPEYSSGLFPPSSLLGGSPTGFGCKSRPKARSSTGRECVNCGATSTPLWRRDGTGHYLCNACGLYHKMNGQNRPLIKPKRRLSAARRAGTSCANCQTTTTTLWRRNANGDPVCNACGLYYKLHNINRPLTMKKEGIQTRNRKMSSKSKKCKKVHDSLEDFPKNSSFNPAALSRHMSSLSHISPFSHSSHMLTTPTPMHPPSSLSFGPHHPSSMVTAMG
Description: The IHH cells were transiently transfected with empty vector (for the NT) or human GATA3-expressing plasmid as well as pRL-TK (internal control) and GATA-Luc reporter plasmids. Cells were exposed to DMSO vehicle or compounds for 48 hours. Experiments were done in triplicate.

[7] = test system: H322 KRAS wild-type NSCLC cells; assay: MTT assay, H322; format: cell-based; details: 72 hours
Description: as §1

LNCaP-GATA2 cells = assay: BrdU cell proliferation assay in LNCaP-GATA2 cells, combination with bicalutamide; format: cell-based; details: equi-molar combination, 48 hours
Description: (§2) (A) PSA-luc reporter assay in LNCaP-GATA2 cells, which were exposed to DMSO vehicle, BIC, 673, or equi-molar combination of Bic and 673 for 72 hours in FBS medium. RLU, relative luciferase unit; (B) BrdU Cell Proliferation Assay (Assay Kit #6813, Cell Signaling Tech.). LNCaP-GATA2 cells were exposed to DMSO vehicle, Bic, 673 or equi-molar combination of Bic and 673 for 48 hours. In the last 8 hours, 10 μM BrdU was added to the plate. **p<0.001, ***p<0.001 when compared with BIC at the same doses; #p<0.05, ##p<0.001 when compared with 673 at the same doses.

[8] = test system: H23 KRAS-mutant NSCLC cells; assay: MTT assay, H23; format: cell-based; details: KRAS-mutant NSCLC, 72 hours
Description: as §1
Panc 10.05, H23 and HCT-116 cells express endogenous KRAS 12D, 12C and 13D mutants, respectively. Cells were exposed to DMSO vehicle or compounds at designated doses for 72 hours. Experiments were done in triplicate.

[9] = test system: AR signaling in LNCaP-GATA2, HP-LNCaP, C4-2B and 22Rv1 cells; assay: Western blot, AR signaling in LNCaP-GATA2 and CRPC cells; format: cell-based; details: LNCaP-GATA2 in FBS medium, 22Rv1 in CSS medium, 72 hours
Description: FIG. 2.11 By breaking AR-GATA2 feedback loop, compound 673 suppresses the AR signaling in CRPC cells. […] Cells were exposed to DMSO vehicle, BIC, 673 or K7174 at designated doses (μM) for 72 hours.

ERG = target: T6, ERG (Homo sapiens, UniProt P11308); assay: ERG-dependent reporter assay in HEK293 cells; format: cell-based; set-up: expressed in transfected cells; host or cells: HEK293; details: PUx3-Luc reporter, 48 hours, designated doses
T6 sequence (P11308 1-486 isoform P11308-3): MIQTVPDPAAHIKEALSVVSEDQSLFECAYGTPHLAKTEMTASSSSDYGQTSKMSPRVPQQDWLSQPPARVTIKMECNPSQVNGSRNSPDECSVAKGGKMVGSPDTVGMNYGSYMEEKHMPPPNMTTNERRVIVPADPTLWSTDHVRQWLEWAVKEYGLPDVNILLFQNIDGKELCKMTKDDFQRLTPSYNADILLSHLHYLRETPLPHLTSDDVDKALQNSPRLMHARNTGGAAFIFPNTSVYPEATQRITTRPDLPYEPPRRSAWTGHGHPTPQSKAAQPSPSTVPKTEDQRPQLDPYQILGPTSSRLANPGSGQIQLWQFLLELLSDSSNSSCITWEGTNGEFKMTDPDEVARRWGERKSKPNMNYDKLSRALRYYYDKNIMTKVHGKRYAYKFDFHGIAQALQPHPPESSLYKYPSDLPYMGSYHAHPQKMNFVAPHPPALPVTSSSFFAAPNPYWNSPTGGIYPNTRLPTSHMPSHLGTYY
Description: HEK293 cells were transiently transfected with empty vector (for the NT) or ERG-expressing plasmid as well as pRL-TK (internal control) and PUx3-Luc reporter. Cells were then exposed to DMSO vehicle or compounds at designated doses for 48 hours. Experiments were done in triplicate.

[10] = test system: PSA-luc reporter in LNCaP-GATA2 cells; assay: PSA-luc reporter assay in LNCaP-GATA2 cells, combination with bicalutamide; format: cell-based; details: equi-molar combination, 72 hours, FBS medium
Description: as §2

GATA = details: read-out: IC50 in reporter assay; cited from earlier work

T1 sequence (Q14653 whole entry, species assumed): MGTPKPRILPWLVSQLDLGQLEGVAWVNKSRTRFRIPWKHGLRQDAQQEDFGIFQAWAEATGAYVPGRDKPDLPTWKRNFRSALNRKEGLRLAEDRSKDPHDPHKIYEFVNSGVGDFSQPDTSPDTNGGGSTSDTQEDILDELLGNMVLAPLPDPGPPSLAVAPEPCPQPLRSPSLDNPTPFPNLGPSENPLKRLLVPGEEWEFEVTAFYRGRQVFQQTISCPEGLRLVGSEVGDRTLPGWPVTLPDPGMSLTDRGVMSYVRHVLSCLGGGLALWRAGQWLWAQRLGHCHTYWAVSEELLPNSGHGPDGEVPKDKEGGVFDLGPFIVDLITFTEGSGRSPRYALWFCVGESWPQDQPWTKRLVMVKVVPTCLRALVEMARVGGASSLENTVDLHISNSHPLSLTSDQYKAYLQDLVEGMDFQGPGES

Fc1cccc(-c2nc(CCCc3c[nH]c4ccccc34)oc2-c2cccc(F)c2)c1 [Compound 673]
activity against wild-type IRF3 (ISRE-luc) (wild-type IRF3): inactive | GATA2 inhibition in GATA2-dependent reporter assay (human GATA2): GATA2 inhibitors | dose-dependent binding to amine-coupled GATA2 (SPR) ([1]; 0-50 μM, 2-fold dilution series): Specific and dose-dependent binding | binding to amine-coupled GATA2 (SPR) ([1]; 50 μM each): Direct binding; also recorded: Specific binding | activation of hSTING in ISRE-luc reporter assay (human STING (hSTING)): activate hSTING | suppression of androgen receptor (AR) signaling (Western blot) [2]: potently inhibits the AR signaling; also recorded: suppresses the androgen receptor (AR) signaling | inhibition of GATA2 expression (Western blot) [3]: inhibits GATA2 expression | activity against fusion protein IRF3DBD-GATA2NTD (ISRE-luc) [4]: active | cytotoxicity in A549 cells (MTT) [5]: cytotoxic | selectivity for GATA2 among GATA family members [6]: selectively inhibits GATA2 | activity against GATA3 in GATA3-dependent reporter assay (human GATA3; 10 μM): inactive against GATA3 | activity against GATA3 in GATA3-dependent reporter assay (human GATA3; compounds at 5 μM): inactive against GATA3 | cytotoxicity in H322 cells (MTT) [7]: not toxic | effect of combination with bicalutamide (BIC) in BrdU cell proliferation assay (LNCaP-GATA2 cells): Synergistic effect | cytotoxicity in H23 cells (MTT) [8]: cytotoxic | suppression of AR signaling in LNCaP-GATA2 and CRPC cells (WB) [9]: suppresses the AR signalling in CRPC cells; also recorded: effective in suppressing AR signaling | ERG inhibition in ERG-dependent reporter assay (ERG): ERG inhibitors | effect of combination with bicalutamide (BIC) in PSA-luc reporter assay [10]: Synergistic effect

COc1cc(/C=C/CCCN2CCCN(CCC/C=C/c3cc(OC)c(OC)c(OC)c3)CC2)cc(OC)c1OC [Compound K7174, K7174, reference compound]
selectivity for GATA2 among GATA family members [6]: not selective | activity against GATA3 in GATA3-dependent reporter assay (human GATA3; compounds at 5 μM): active against GATA3 | IC50 (GATA): ~15 µM
